From patent publication US4657856A (priority 1980, dated 1987)

What was measured:
[1] = tested on: glutathione peroxidase produced from Mucor hiemalis YR-0929; test: substrate specificity of glutathione peroxidase (NADPH/glutathione reductase coupled assay, 340 nm); type: biochemical; conditions: hydroperoxide as substrate of the enzyme; cumene hydroperoxide = 100
Experimental: The reaction is illustrated by the following formulae (1) and (2): [drawing 1] wherein GSSG represents oxidized glutathione, NADPH represents reduced nicotinamide adenine dinucleotide phosphate […] and NADP represents nicotinamide adenine dinucleotide phosphate.
(1) Substrate: 30 mM Cumene hydroperoxide aqueous solution: 0.2 ml
(2) Buffer: 100 mM Phosphate buffer (pH 7.0) containing 4 mM EDTA: 1.5 ml
(3) Reduced glutathione: 10 mM Aqueous solution: 0.3 ml
(4) Sodium azide: 10 mM Aqueous solution: 0.3 ml
(5) NADPH*: 1.6 mM Aqueous solution: 0.3 ml
(6) Glutathione reductase solution: Prepared by diluting with 100 mM phosphate buffer (pH 7.0) to 1 u/ml: 0.3 ml
(7) Enzyme solution: 0.1 ml
This enzyme acts upon cumene hydroperoxide, t-butyl hydroperoxide, linolenic acid hydroperoxide, etc.

[2] = tested on: glutathione peroxidase produced from Mucor hiemalis YR-0929; test: inhibition of glutathione peroxidase enzymatic action; type: biochemical; conditions: 25° C., pH 7.0
Experimental: When reacted at 25° C. and pH 7.0, this enzymatic action is inhibited by the following substances.

[3] = inhibitor concentration 10^-3 M
[4] = inhibitor concentration 10^-4 M

| Molecule | Relative Activity (%) [1] [%] | Percent Inhibition (%) [2, 3] [%] | Percent Inhibition (%) [2, 4] [%] |
| --- | --- | --- | --- |
| CC(C)(OO)c1ccccc1 [Cumene hydroperoxide] | 100 |  |  |
| NC(=O)CI [Iodoacetamide] |  | 16 | 1 |
| CCN1C(=O)C=CC1=O [N--Ethylmaleimide] |  | 93 | 3 |
| O=C(O)c1cc[c]([Hg][Cl])cc1 [PCMB, Parachloromercurybenzoate] |  | 99 | 75 |
| CC(C)(C)OO [t-Butyl hydroperoxide] | 175 |  |  |
| Linolenic acid hydroperoxide | 98 |  |  |
